Measured values reported in the supplement of paper PMC11451515.

System: SEM cells
Test: cell viability relative to DMSO control; higher = less cytotoxic
Conditions: 48 h
Summary of the method: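 Before seeding, each leukemia line was adapted for at least four passages in each medium. NOMO1 or SEM cells (500 cells/well) and P12-Ichikawa cells (1000 cells/well) went into 1536-well plates at 5 μl, then received library compounds in DMSO by pin dosing across 11 threefold concentrations, 47 μM to 0.79 nM. Readout was CellTiter-Glo One luminescence after 48 h at 37°C, and viability is given as a per-plate percentage of DMSO wells, with cell-free wells as background.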

[1] = HPLM + 10% dialyzed FBS, 0.000781 µM
[2] = HPLM + 10% dialyzed FBS, 0.00234 µM
[3] = HPLM + 10% dialyzed FBS, 0.00702 µM
[4] = HPLM + 10% dialyzed FBS, 0.0211 µM
[5] = HPLM + 10% dialyzed FBS, 0.0632 µM
[6] = HPLM + 10% dialyzed FBS, 0.19 µM
[7] = HPLM + 10% dialyzed FBS, 0.569 µM
[8] = HPLM + 10% dialyzed FBS, 1.71 µM
[9] = HPLM + 10% dialyzed FBS, 5.12 µM
[10] = HPLM + 10% dialyzed FBS, 15.4 µM
[11] = HPLM + 10% dialyzed FBS, 46.1 µM
[12] = RPMI 5 mM glucose + 10% FBS, 0.000781 µM
[13] = RPMI 5 mM glucose + 10% FBS, 0.00234 µM
[14] = RPMI 5 mM glucose + 10% FBS, 0.00702 µM
[15] = RPMI 5 mM glucose + 10% FBS, 0.0211 µM
[16] = RPMI 5 mM glucose + 10% FBS, 0.0632 µM
[17] = RPMI 5 mM glucose + 10% FBS, 0.19 µM
[18] = RPMI 5 mM glucose + 10% FBS, 0.569 µM
[19] = RPMI 5 mM glucose + 10% FBS, 1.71 µM
[20] = RPMI 5 mM glucose + 10% FBS, 5.12 µM
[21] = RPMI 5 mM glucose + 10% FBS, 15.4 µM
[22] = RPMI 5 mM glucose + 10% FBS, 46.1 µM
[23] = RPMI 5 mM glucose + 10% dialyzed FBS, 0.000781 µM
[24] = RPMI 5 mM glucose + 10% dialyzed FBS, 0.00234 µM
[25] = RPMI 5 mM glucose + 10% dialyzed FBS, 0.00702 µM
[26] = RPMI 5 mM glucose + 10% dialyzed FBS, 0.0211 µM
[27] = RPMI 5 mM glucose + 10% dialyzed FBS, 0.0632 µM
[28] = RPMI 5 mM glucose + 10% dialyzed FBS, 0.19 µM
[29] = RPMI 5 mM glucose + 10% dialyzed FBS, 0.569 µM
[30] = RPMI 5 mM glucose + 10% dialyzed FBS, 1.71 µM
[31] = RPMI 5 mM glucose + 10% dialyzed FBS, 5.12 µM
[32] = RPMI 5 mM glucose + 10% dialyzed FBS, 15.4 µM
[33] = RPMI 5 mM glucose + 10% dialyzed FBS, 46.1 µM

SMILES	cell viability [1] [%]	cell viability [2] [%]	cell viability [3] [%]	cell viability [4] [%]	cell viability [5] [%]	cell viability [6] [%]	cell viability [7] [%]	cell viability [8] [%]	cell viability [9] [%]	cell viability [10] [%]	cell viability [11] [%]	cell viability [12] [%]	cell viability [13] [%]	cell viability [14] [%]	cell viability [15] [%]	cell viability [16] [%]	cell viability [17] [%]	cell viability [18] [%]	cell viability [19] [%]	cell viability [20] [%]	cell viability [21] [%]	cell viability [22] [%]	cell viability [23] [%]	cell viability [24] [%]	cell viability [25] [%]	cell viability [26] [%]	cell viability [27] [%]	cell viability [28] [%]	cell viability [29] [%]	cell viability [30] [%]	cell viability [31] [%]	cell viability [32] [%]	cell viability [33] [%]
Cc1cn2c(-c3cn[nH]c3)cnc2c(Nc2ccc(C(=O)N3CCNCC3)cc2F)n1	105	106	119	103	109	105	107	108	87.8	45.9	17	98.7	99.8	107	98.5	112	114	96.7	109	90.6	48.3	11.8	107	104	105	99.5	122	102	114	98.2	91.7	49.9	9.99
O=C(NOCC(O)CO)c1cc(Br)c(F)c(F)c1Nc1ccc(I)cc1F (stereo unspecified)	66.2	76.3	73	78.6	77.2	83	80.4	62.4	46.3	60.7	44.1	63.8	92	76.8	90.1	94.4	80.3	70.8	69.3	52.7	45.7	37	73.3	95.8	67.4	83.1	81.6	67.5	54.1	61.1	39	37.1	42.1
COC1=CC=CC2=C1C(=NC(=N2)C3=CC=CS3)NN4C(=O)\C=C(C)/C4=O	86.8	96.3	101	87.5	72.4	69.1	42.5	29.7	11.3	2.5	2.94	90.3	99	93.5	92.2	81.9	75.5	59.5	36	5.68	1.13	2.39	87.3	87.2	88.5	78.1	76.3	83.1	57.4	41.3	5.19	1.14	2.21
CNC(=O)c1ccc(-c2cnc3ncc(Cc4ccc5ncccc5c4)n3n2)cc1F	108	126	122	119	128	117	124	137	120	127	124	110	129	100	127	133	124	126	125	124	133	105	116	121	129	126	129	130	144	146	131	118	132
C\C1=C\C(=O)OC2=C1C=CC(=C2)O	120	114	126	119	118	119	128	77.1	122	111	109	98.1	118	108	104	118	110	118	87.3	108	97.1	92.1	120	119	146	136	135	117	114	75.2	117	117	115
CC(C)OC(=O)OCOP(=O)(CO[C@H](C)Cn1cnc2c(N)ncnc21)OCOC(=O)OC(C)C.O=C(O)C=CC(=O)O	85	99.6	28.3	121	105	114	114	120	98.2	105	35.1	108	113	11.7	119	119	124	115	115	109	94.8	76.1	77.3	107	23.8	102	113	104	97.9	124	104	102	32.2
COc1cc2nc(N(C)CCCNC(=O)C3CCCO3)nc(N)c2cc1OC (stereo unspecified)	53.9	66.5	58.9	80.3	84.7	84.9	75.5	89.3	74.2	79.2	73.3	60.7	61.4	64.1	71.7	87.1	102	82.9	75.3	73.4	76.4	62.2	69.7	67.7	69.5	97.7	89	93.7	74.1	87.3	75	77.4	67.2
